Data on four compounds can be found in patent US12076364B2, “Use of interference peptide in preparation of anti-SARS-CoV-2 medicament” (KUNMING INSTITUTE OF ZOOLOGY, CHINESE ACADEMY OF SCIENCES, priority 2020, dated 2024).

Where a SMILES comes first, the peptide text is derived from it. Where no end group is shown, it is not given here.

The assay concerns SARS-CoV-2. Conditions: 48 h; for inhibition of viral infection: 80 μM peptide, Vero E6 cells.

As a reminder, the EC50 is the concentration needed to bring the measured effect to its halfway point. Read a high EC50 as weaker potency. For the compound `C[C@H](NC(=O)[C@@H](N)CCCNC(=N)N)C(=O)NCC(=O)N[C@@H](CCCCN)C(=O)O` [RK4, RAGK] (H-RAGK-OH; N-terminus assumed), the “inhibition of viral infection” value is listed as 99% and the EC50 amounted to 10 µM.

Take DQTKFPIVNAEL-OH [DL12]: the “inhibition of viral infection” value came to 99% and the EC50 came to 5 µM.

Turning to HPVTGQF [HF7, HPVTGQF], the “inhibition of viral infection” value came to 89% and the EC50 is 11.4 µM.

Regarding SDWKTD [SD6, SDWKTD], the “inhibition of viral infection” value is reported as 98% and a half-maximal effect (EC50) was put at 6.4 µM.
